Source: PMC11435058, “Synthesis of New Thiazole-Privileged Chalcones as Tubulin Polymerization Inhibitors with Potential Anticancer Activities” (Pharmaceuticals, 2024)

Experiments:
K-562 = assay: NCI-60 anticancer screen (SRB; single dose and five doses); conditions: Homo sapiens
NCI-H522 = assay: as above; conditions: Homo sapiens
SR = assay: as above; conditions: Homo sapiens
CCRF-CEM = assay: NCI-60 anticancer screen (SRB; single dose 10 μM and five doses); conditions: Homo sapiens
SK-MEL-5 = assay: NCI-60 anticancer screen (SRB; single dose and five doses); conditions: Homo sapiens
SF-268 = assay: as above; conditions: Homo sapiens
SF-539 = assay: as above; conditions: Homo sapiens
DU-145 = assay: as above; conditions: Homo sapiens
RPMI-8226 = assay: as above; conditions: Homo sapiens
MCF7 = assay: as above; conditions: Homo sapiens
[1] = tested on: 60 human tumor cell lines panel; assay: NCI-60 anticancer screen, whole panel (means and ranges over the cell lines); assay type: cell-based
PC-3 = assay: NCI-60 anticancer screen (SRB; single dose and five doses); conditions: Homo sapiens
MOLT-4 = assay: as above; conditions: Homo sapiens
EKVX = assay: as above; conditions: Homo sapiens
SN12C = assay: as above; conditions: Homo sapiens
NCI-H23 = assay: as above; conditions: Homo sapiens
BT-549 = assay: as above; conditions: Homo sapiens
NCI-H226 = assay: as above; conditions: Homo sapiens
NCI-H322M = assay: as above; conditions: Homo sapiens
MDA-MB-231/ATCC = assay: as above; conditions: Homo sapiens
HS 578T = assay: as above; conditions: Homo sapiens
NCI/ADR-RES = assay: as above; conditions: Homo sapiens
M14 = assay: as above; conditions: Homo sapiens
COLO 205 = assay: as above; conditions: Homo sapiens
RXF 393 = assay: as above; conditions: Homo sapiens
A498 = assay: as above; conditions: Homo sapiens
SNB-19 = assay: cells; conditions: Homo sapiens
MALME-3M = assay: NCI-60 anticancer screen (SRB; single dose and five doses); conditions: Homo sapiens
ACHN = assay: as above; conditions: Homo sapiens
[2] = 48 h, read-out: Growth Percentage
[3] = five doses, mean graph midpoint over all cell lines

Cc1[nH]c(=S)sc1C(=O)/C=C/c1cccc([N+](=O)[O-])c1 [2h, (E)-1-(4-Methyl-2-Thioxo-2,3-Dihydrothiazol-5-yl)-3-(3-Nitrophenyl)Prop-2-En-1-One]
GI50 (K-562; K562): 3.09 µM | IC50 (K-562; K562): 3.72 µM | activity at 10 µM (K-562; K562, 48 h, read-out: Growth Percentage): 13.8% | CC50 (K-562; K562, read-out: LC50): > 100 µM | IC (TGI) (K-562; K562, read-out: TGI): > 100 µM | GI50 (NCI-H522; NCI-H522): 5.01 µM | IC50 (NCI-H522; NCI-H522): 11.8 µM | activity at 10 µM (NCI-H522; NCI-H522, 48 h, read-out: Growth Percentage): -58.8% | CC50 (NCI-H522; NCI-H522, read-out: LC50): 46.8 µM | IC (TGI) (NCI-H522; NCI-H522, read-out: TGI): 17.8 µM | GI50 (SR): 2.75 µM | IC50 (SR): 3.89 µM | activity at 10 µM (SR; [2]): -11% | CC50 (SR; read-out: LC50): > 100 µM | IC (TGI) (SR; read-out: TGI): > 100 µM | GI50 (CCRF-CEM): 2.14 µM | activity at 10 µM (CCRF-CEM; [2]): 13.8% | IC50 (CCRF-CEM; five-dose, Leukemia CCRF-CEM): 3.39 µM | CC50 (CCRF-CEM; read-out: LC50): > 100 µM | IC (TGI) (CCRF-CEM; read-out: TGI): 6.61 µM | GI50 (SK-MEL-5; SK-MEL-5): 13.2 µM | IC50 (SK-MEL-5; SK-MEL-5): 22.9 µM | activity at 10 µM (SK-MEL-5; SK-MEL-5, 48 h, read-out: Growth Percentage): -68.8% | CC50 (SK-MEL-5; SK-MEL-5, read-out: LC50): 51.3 µM | IC (TGI) (SK-MEL-5; SK-MEL-5, read-out: TGI): 26.3 µM | GI50 (SF-268; SF-268): 10.5 µM | IC50 (SF-268; SF-268): 19.1 µM | activity at 10 µM (SF-268; SF-268, 48 h, read-out: Growth Percentage): 27.5% | CC50 (SF-268; SF-268, read-out: LC50): 57.5 µM | IC (TGI) (SF-268; SF-268, read-out: TGI): 24.6 µM | GI50 (SF-539; SF-539): 2.19 µM | IC50 (SF-539; SF-539): 3.98 µM | activity at 10 µM (SF-539; SF-539, 48 h, read-out: Growth Percentage): -85.9% | CC50 (SF-539; SF-539, read-out: LC50): 12.9 µM | IC (TGI) (SF-539; SF-539, read-out: TGI): 4.9 µM | GI50 (DU-145; DU-145): 2.4 µM | IC50 (DU-145; DU-145): 3.89 µM | activity at 10 µM (DU-145; DU-145, 48 h, read-out: Growth Percentage): 8.55% | CC50 (DU-145; DU-145, read-out: LC50): 23.4 µM | IC (TGI) (DU-145; DU-145, read-out: TGI): 6.17 µM | GI50 (RPMI-8226; RPMI-8226): 2.04 µM | activity at 10 µM (RPMI-8226; RPMI-8226, 48 h, read-out: Growth Percentage): 9.39% | IC50 (RPMI-8226; RPMI-8226, five-dose, Leukemia RPMI-8226): 3.72 µM | CC50 (RPMI-8226; RPMI-8226, read-out: LC50): > 100 µM | IC (TGI) (RPMI-8226; RPMI-8226, read-out: TGI): 6.31 µM | GI50 (MCF7; MCF7): 2.75 µM | IC50 (MCF7; MCF7): 6.31 µM | activity at 10 µM (MCF7; MCF7, 48 h, read-out: Growth Percentage): -45.4% | CC50 (MCF7; MCF7, read-out: LC50): 38 µM | IC (TGI) (MCF7; MCF7, read-out: TGI): 9.77 µM | activity at 10 µM ([1]; Homo sapiens, 48 h, mean over the tested cell lines, dose of 10 μM, read-out: Mean growth percentage): -21.8% | Log10GI50 _MID [1, 3]: -5.37 Molar | Log10LC50 _MID [1, 3]: -4.34 Molar | Log10TGI _MID [1, 3]: -4.82 Molar | GI50 (PC-3; PC-3): 4.07 µM | IC50 (PC-3; PC-3): 8.13 µM | activity at 10 µM (PC-3; PC-3, 48 h, read-out: Growth Percentage): 8.43% | CC50 (PC-3; PC-3, read-out: LC50): 56.2 µM | IC (TGI) (PC-3; PC-3, read-out: TGI): 17.8 µM | GI50 (MOLT-4; MOLT-4): 3.47 µM | IC50 (MOLT-4; MOLT-4): 5.01 µM | activity at 10 µM (MOLT-4; MOLT-4, 48 h, read-out: Growth Percentage): 13.3% | CC50 (MOLT-4; MOLT-4, read-out: LC50): > 100 µM | IC (TGI) (MOLT-4; MOLT-4, read-out: TGI): 30.2 µM | GI50 (EKVX): 5.75 µM | IC50 (EKVX): 15.1 µM | activity at 10 µM (EKVX; [2]): 0.65% | CC50 (EKVX; read-out: LC50): 46.8 µM | IC (TGI) (EKVX; read-out: TGI): 19.5 µM | GI50 (SN12C): 2.69 µM | IC50 (SN12C): 4.37 µM | activity at 10 µM (SN12C; [2]): -25.6% | CC50 (SN12C; read-out: LC50): 33.1 µM | IC (TGI) (SN12C; read-out: TGI): 10.2 µM | GI50 (NCI-H23; NCI-H23): 5.37 µM | IC50 (NCI-H23; NCI-H23): 10 µM | activity at 10 µM (NCI-H23; NCI-H23, 48 h, read-out: Growth Percentage): -72.8% | CC50 (NCI-H23; NCI-H23, read-out: LC50): 45.7 µM | IC (TGI) (NCI-H23; NCI-H23, read-out: TGI): 18.2 µM | GI50 (BT-549; BT-549): 3.8 µM | IC50 (BT-549; BT-549): 13.5 µM | activity at 10 µM (BT-549; BT-549, 48 h, read-out: Growth Percentage): -14% | CC50 (BT-549; BT-549, read-out: LC50): 43.6 µM | IC (TGI) (BT-549; BT-549, read-out: TGI): 14.8 µM | GI50 (NCI-H226; NCI-H226): 11.2 µM | IC50 (NCI-H226; NCI-H226): 33.1 µM | activity at 10 µM (NCI-H226; NCI-H226, 48 h, read-out: Growth Percentage): -41.9% | CC50 (NCI-H226; NCI-H226, read-out: LC50): > 100 µM | IC (TGI) (NCI-H226; NCI-H226, read-out: TGI): 38 µM | GI50 (NCI-H322M): 8.71 µM | IC50 (NCI-H322M): 17.4 µM | activity at 10 µM (NCI-H322M; [2]): 28.9% | CC50 (NCI-H322M; read-out: LC50): 50.1 µM | IC (TGI) (NCI-H322M; read-out: TGI): 21.9 µM | GI50 (MDA-MB-231/ATCC; MDA-MB-231): 5.25 µM | IC50 (MDA-MB-231/ATCC; MDA-MB-231): 16.2 µM | activity at 10 µM (MDA-MB-231/ATCC; MDA-MB-231, 48 h, read-out: Growth Percentage): -17.6% | CC50 (MDA-MB-231/ATCC; MDA-MB-231, read-out: LC50): 44.7 µM | IC (TGI) (MDA-MB-231/ATCC; MDA-MB-231, read-out: TGI): 17.8 µM | GI50 (HS 578T): 17.4 µM | IC50 (HS 578T): 67.6 µM | activity at 10 µM (HS 578T; [2]): 24.5% | CC50 (HS 578T; read-out: LC50): > 100 µM | IC (TGI) (HS 578T; read-out: TGI): 52.5 µM | GI50 (NCI/ADR-RES): 2.51 µM | IC50 (NCI/ADR-RES): 4.27 µM | activity at 10 µM (NCI/ADR-RES; [2]): 8.19% | CC50 (NCI/ADR-RES; read-out: LC50): > 100 µM | IC (TGI) (NCI/ADR-RES; read-out: TGI): 5.75 µM | GI50 (M14; M14): 7.08 µM | IC50 (M14; M14): 11.8 µM | activity at 10 µM (M14; M14, 48 h, read-out: Growth Percentage): 1.86% | CC50 (M14; M14, read-out: LC50): 83.2 µM | IC (TGI) (M14; M14, read-out: TGI): 25.7 µM | GI50 (COLO 205; COLO 205): 5.75 µM | IC50 (COLO 205; COLO 205): 8.71 µM | activity at 10 µM (COLO 205; COLO 205, 48 h, read-out: Growth Percentage): -24.9% | CC50 (COLO 205; COLO 205, read-out: LC50): 51.3 µM | IC (TGI) (COLO 205; COLO 205, read-out: TGI): 19.1 µM | GI50 (RXF 393; RXF 393): 10.2 µM | IC50 (RXF 393; RXF 393): 24.6 µM | activity at 10 µM (RXF 393; RXF 393, 48 h, read-out: Growth Percentage): -91.9% | CC50 (RXF 393; RXF 393, read-out: LC50): 47.9 µM | IC (TGI) (RXF 393; RXF 393, read-out: TGI): 22.4 µM | GI50 (A498; A498): 14.8 µM | IC50 (A498; A498): 29.5 µM | CC50 (A498; A498, read-out: LC50): 55 µM | IC (TGI) (A498; A498, read-out: TGI): 28.2 µM | GI50 (SNB-19; SNB-19): 4.9 µM | IC50 (SNB-19; SNB-19): 11.8 µM | activity at 10 µM (SNB-19; SNB-19, 48 h, read-out: Growth Percentage): 10.4% | CC50 (SNB-19; SNB-19, read-out: LC50): 41.7 µM | IC (TGI) (SNB-19; SNB-19, read-out: TGI): 17 µM | GI50 (MALME-3M): 12.3 µM | IC50 (MALME-3M): 24.6 µM | activity at 10 µM (MALME-3M; [2]): -42.9% | CC50 (MALME-3M; read-out: LC50): 55 µM | IC (TGI) (MALME-3M; read-out: TGI): 26.3 µM | GI50 (ACHN): 4.07 µM | IC50 (ACHN): 6.17 µM | activity at 10 µM (ACHN; [2]): -58.4% | CC50 (ACHN; read-out: LC50): 38.9 µM | IC (TGI) (ACHN; read-out: TGI): 14.8 µM
